Data published in patent US20240075243A1, “REUSABLE HYDROPHILIC URINARY CATHETER ASSEMBLY” (WELLSPECT AB, priority 2021, published 2024).

System: E. coli
Assay: Disinfection effect of hydration liquids on catheters immersed in E. coli suspension
Assay type: cell-based
Conditions: 4 hours immersion, incubated at 37 deg. C for 19.5 hours
From the text: In another line of experiments, hydration liquids with different types of disinfection mediums were used, and evaluated in respect of the disinfection effect. The hydration liquid comprised 5 wt % of PVP K30, and various disinfection mediums. As comparative examples, a hydration liquid with PVP K30 but without any disinfection medium was used, as well as a hydration liquid only comprising water. For the tests, catheters were first activated in a hydration liquid containing a disinfectant. Thereafter, the catheters were immersed in an E. coli suspension. The catheters were then rinsed in plain water, before again being immersed in the same hydration liquid used for the activation for 4 hours. Thereafter, the catheters were transferred into a growth medium and incubated at 37 deg. C for 19.5 hours. After this, it was determined whether, or not, bacterial growth had occurred during incubation.

**Q.** `OCl` [Sodium hypochlorite, sodium hypochlorite] was tested. Which Result after incubation (disinfection medium 0.02 wt % in hydration liquid with 5 wt % PVP K30) did it give?
**A.** The Result after incubation was “No growth”.

**Q.** With benzalkonium chloride as the compound, how does the Result after incubation (disinfection medium 0.025 wt % in hydration liquid with 5 wt % PVP K30) read?
**A.** The Result after incubation was “No growth”.

**Q.** What about the Result after incubation (disinfection medium 0.1 wt % in hydration liquid with 5 wt % PVP K30) of the same compound?
**A.** Its Result after incubation is “No growth”.

**Q.** `Oc1cc(Cl)ccc1Oc1ccc(Cl)cc1Cl` [Triclosan, triclosan] was tested. Which Result after incubation (disinfection medium 0.075 wt % in hydration liquid with 5 wt % PVP K30) did it give?
**A.** The Result after incubation was “No growth”.

**Q.** And the Result after incubation (disinfection medium 0.3 wt % in hydration liquid with 5 wt % PVP K30)?
**A.** Its Result after incubation is “No growth”.

**Q.** What does the source list for `O=[N+]([O-])[O-].[Ag+]` [Silver nitrate, silver nitrate]?
**A.** Result after incubation (disinfection medium 0.05 wt % in hydration liquid with 5 wt % PVP K30): No growth; Result after incubation (disinfection medium 0.2 wt % in hydration liquid with 5 wt % PVP K30): No growth
